In US12521393B2, “Cytotoxicity targeting chimeras for CCR2-expressing cells” (GLAXOSMITHKLINE INTELLECTUAL PROPERTY DEVELOPMENT LIMITED, priority 2021, dated 2026):
Where “and” joins values, the source holds several entries; their conditions need not be identical. Identical values can stand only once.

Columns and labels:
[1] = test system: endogenous target monocytes in human PBMC; experiment: PBMC ex vivo monocyte depletion flow cytometry assay (Example 200); assay type: cell-based; conditions: with anti-cotinine antibody (SEQ ID NO: 11/12), 18-24 hours, EC50 in molar; for EC50: read-out: Ex Vivo Depletion Assay pEC50 (converted)
Method in brief: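 Monocyte depletion is reported as pEC50, averaged or given individually across runs, and read by flow cytometry staining CD45, CD14 and CD4 with a viability dye. Compounds, diluted four-fold over 11 points from 1 mM DMSO stocks, were combined with 30 μg/mL Fc-enhanced anti-cotinine antibody and human PBMC, then incubated 18-24 h at 37° C.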

[2] = target: anti-cotinine antibody (SEQ ID NO: 11/12, rabbit variable region with human IgG1 Fc DE mutation); experiment: SPR binding of anti-cotinine antibody to ARM compounds, Biacore T200, 37° C. (Example 202); conditions: SPR Biacore T200, 37° C., pH 7.4, antibody SEQ ID NO: 11/12 captured on protein A; Kd in molar
Method in brief: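 Run at 37 °C in 10 mM HEPES pH 7.4, 150 mM NaCl, 0.005% P20, 1% DMSO, with compounds titrated from 200 nM (five 3-fold steps) over protein A–captured antibody. A 1:1 kinetic model on double-referenced data gave rate constants, Kd as koff/kon and residence time 1/koff; results as pKd, run-averaged.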

[3] = target: T1, CHOK1 cells engineered to overexpress human CCR2 (Homo sapiens, UniProt P41597); experiment: Antibody dependent cellular cytotoxicity (ADCC) reporter assay (Example 199); assay type: cell-based; conditions: with anti-cotinine antibody (SEQ ID NO: 11/12), Jurkat FcγRIIIa NFAT-luciferase reporter cells, 12-18 hours, EC50 in molar, average or individual runs; for EC50: read-out: ADCC Reporter Assay pEC50 (converted)
T1 construct: expressed in transfected cells; host or cells: CHOK1
Experimental: An antibody dependent cellular cytoxocity reporter assay was conducted using the following four assay components: (i) ARM compound of Formula (I) targeting CCR2 (concentrations ranging from […] to 10 μM) (ii) anti-cotinine antibody having a heavy chain sequence of SEQ ID NO: 11 and a light chain sequence of SEQ ID NO: 12 (rabbit variable region with human IgG1 Fc domain containing a DE mutation (S239D/1332E)) (concentrations ranging from 0.01 μg/mL to 200 μg/mL); (iii) target cells: CHOK1 cells engineered to overexpress either human CCR2 (typically 1000-20,000 cells per well) and (iv) reporter cells: Jurkat cells engineered to express FcγRIIIa with the reporter gene luciferase under the control of the NFAT promoter (typically 3000-75,000 cells per well). Reagents were combined in a final volume of 20 μL in a 384-well tissue culture treated plate. All four assay components were incubated together for about 12-18 hours. Thereafter, BioGlo Detection reagent (Promega) was added to the wells to lyse the cells and provide a substrate for the luciferase reporter protein. Luminescence signal was measured on a microplate reader and signal: background was calculated by dividing the signal of a test well by the signal obtained when no heterobivalent compound of Formula (I) was added. EC50 calculations were done using Graphpad Prism Software, specifically a nonlinear regression curve fit (Y=Bottom+(Top−Bottom)/(1+10A((LogEC50−X)*HillSlope))).
ARMs compounds of Formula (I) of the invention were tested for ADCC activity in the above assay in or more experimental runs and the results are shown in Table 3 below. Potency of the compounds of Formula (I) of the invention is reported as a pEC50 value. The pEC50 value is the negative log of the EC50 value, wherein the EC50 value is the half maximal effective concentration measured in molar (M). For compounds tested in more than one experimental run, the pEC50 value is reported as an average.

[4] = test system: CCR2 expressing cells (CD11b+Ly6c+Hi) in peripheral blood; experiment: In vivo depletion assay, flow cytometry of peripheral blood (Example 201); design: species or system human CCR2 knock-in mice (C57 background); conditions: hCCR2 knock-in mice, IV 0.1 mpk compound + 10 mpk anti-cotinine antibody (SEQ ID NO: 13/14), peripheral blood at 48 hr
Method in brief: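 Flow cytometry of blood collected at study termination quantified percent depletion of CD11b+Ly6c+Hi cells and CCR2 expression, using surface markers CD45, CD3, CD11b, Ly6C, human CCR2 after Fc block, with 7AAD viability stain. Compound given in saline:DMSO:PBS formulation, optionally combined with anti-cotinine antibody, incubated 30 min before administration.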

[5] = Blood drug concentration analysis by LC-MS/MS after IV dosing with anti-cotinine antibody (Example 201); assay type: in vivo; conditions: C57 background, human CCR2 knock-in, mouse; hCCR2 knock-in mice, IV 0.1 mpk compound + 10 mpk anti-cotinine antibody, whole blood, 48 hours post-dose; read-out: Exposure of Compound of Formula (I) 48 hours post-dose
Experimental: After bleeding, each mouse was sacrificed by cervical dislocation. […] Flow Cytometry Analysis:
Samples were analyzed on Q-Trap. […] The total run time was 2 minutes.

| concentration at 48 h [5] [ng/mL] | Structure (SMILES) | Ex Vivo Depletion Assay pEC50 [1] | pKd of Antibody for ARM Compound of Formula (I) [2] | ADCC Reporter Assay pEC50 [3] | EC50 [1] [nM] | EC50 [3] | % Depletion of CCR2 expressing cells [4] [%] |
| --- | --- | --- | --- | --- | --- | --- | --- |
| – | CN1C(=O)C[C@H](C(=O)NCCCOCCCNC(=O)CCCC(=O)NC2CCC(C(=O)N[C@@H]3C[C@H](NC(C)(C)C)CC[C@@H]3N3CC[C@H](Nc4ncnc5ccc(C(F)(F)F)cc45)C3=O)CC2)[C@H]1c1cccnc1 (stereo partly drawn) [Example 22, N1-((1R,4r)-4-(((1R,2S,5R)-5-(tert-Butylamino)-2-((S)-2-oxo-3-((6-(trifluoromethyl)quinazolin-4-yl)amino)pyrrolidin-1-yl)cyclohexyl)carbamoyl)cyclohexyl)-N5-(3-(3-((2S,3S)-1-methyl-5-oxo-2-(pyridin-3-yl)pyrrolidine-3-carboxamido)propoxy)propyl)glutaramide] | 9.2 | 9.2495 | 9 and 9.3 | – | – | – |
| – | CC(C)N(C)[C@@H]1CC[C@H](N2CC[C@H](Nc3ncnc4ccc(C(F)(F)F)cc34)C2=O)[C@H](NC(=O)CCOCCOCCOCCOCCNC(=O)[C@H]2CC(=O)N(C)[C@@H]2c2cccnc2)C1 [Example 39, (2S,3S)-N-(15-(((1R,2S,5R)-5-(Isopropyl(methyl)amino)-2-((S)-2-oxo-3-((6-(trifluoromethyl)quinazolin-4-yl)amino)pyrrolidin-1-yl)cyclohexyl)amino)-15-oxo-3,6,9,12-tetraoxapentadecyl)-1-methyl-5-oxo-2-(pyridin-3-yl)pyrrolidine-3-carboxamide] | – | – | – | 2510 | 15.8 nM | – |
| – | CC(C)N(C)[C@@H]1CC[C@H](N2CC[C@H](Nc3ncnc4ccc(C(F)(F)F)cc34)C2=O)[C@H](N[C@H]2CC[C@@H](C(=O)NCCOCCOCCOCCOCCNC(=O)[C@H]3CC(=O)N(C)[C@@H]3c3cccnc3)CC2)C1 [Example 67] | – | – | – | 3.98 | 5.01 nM | – |
| 2.3 | CC(C)N(C)[C@@H]1CC[C@H](N2CC[C@H](Nc3ncnc4ccc(C(F)(F)F)cc34)C2=O)[C@H](NC(=O)[C@H]2CC[C@H](N3CCN(S(=O)(=O)C4CCN(C(=O)[C@H](C)NC(=O)[C@H]5CC(=O)N(C)[C@@H]5c5cccnc5)CC4)CC3)CC2)C1 [Example 70, (2S,3S)-N-((S)-1-(4-((4-((1R,4S)-4-(((1R,2S,5R)-5-(isopropyl(methyl)amino)-2-((S)-2-oxo-3-((6-(trifluoromethyl)quinazolin-4-yl)amino)pyrrolidin-1-yl)cyclohexyl)carbamoyl)cyclohexyl)piperazin-1-yl)sulfonyl)piperidin-1-yl)-1-oxopropan-2-yl)-1-methyl-5-oxo-2-(pyridin-3-yl)pyrrolidine-3-carboxamide] | – | – | – | 0.1 | 0.794 nM | 30.51 |
| 1 | CC(C)N(C)[C@@H]1CC[C@H](N2CC[C@H](Nc3ncnc4ccc(C(F)(F)F)cc34)C2=O)[C@H](NC(=O)[C@H]2CC[C@@H](N3CCN(S(=O)(=O)C4CCN(C(=O)[C@H](C)NC(=O)[C@H]5CC(=O)N(C)[C@@H]5c5cccnc5)CC4)CC3)CC2)C1 [Example 71, (2S,3S)-N-((S)-1-(4-((4-((1S,4R)-4-(((1R,2S,5R)-5-(Isopropyl(methyl)amino)-2-((S)-2-oxo-3-((6-(trifluoromethyl)quinazolin-4-yl)amino)pyrrolidin-1-yl)cyclohexyl)carbamoyl)cyclohexyl)piperazin-1-yl)sulfonyl)piperidin-1-yl)-1-oxopropan-2-yl)-1-methyl-5-oxo-2-(pyridin-3-yl)pyrrolidine-3-carboxamide] | – | – | – | 0.794 | 10 nM | 35.25 |
| – | CC(C)N(C)[C@@H]1CC[C@H](N2CC[C@H](Nc3ncnc4ccc(C(F)(F)F)cc34)C2=O)[C@H](NC(=O)CCCCCCCCC(=O)NCCCCCCNC(=O)[C@H]2CC(=O)N(C)[C@@H]2c2cccnc2)C1 [Example 166, N1-((1R,2S,5R)-5-(isopropyl(methyl)amino)-2-((S)-2-oxo-3-((6-(trifluoromethyl)quinazolin-4-yl)amino)pyrrolidin-1-yl)cyclohexyl)-N10-(6-((2S,3S)-1-methyl-5-oxo-2-(pyridin-3-yl)pyrrolidine-3-carboxamido)hexyl)decanediamide] | – | – | – | 1.26 | 0.501 nM | – |
| – | CC(C)N(CCOCCOCCC(=O)N[C@H]1CC[C@@H](C(=O)N[C@@H]2C[C@H](N(C)C(C)C)CC[C@@H]2N2CC[C@H](Nc3ncnc4ccc(C(F)(F)F)cc34)C2=O)CC1)C(=O)CCNC(=O)[C@H]1CC(=O)N(C)[C@@H]1c1cccnc1 [Example 178, (2S,3S)-N-(3-(Isopropyl(2-(2-(3-(((1S,4s)-4-(((1R,2S,5R)-5-(isopropyl(methyl)amino)-2-((S)-2-oxo-3-((6-(trifluoromethyl)quinazolin-4-yl)amino)pyrrolidin-1-yl)cyclohexyl)carbamoyl)cyclohexyl)amino)-3-oxopropoxy)ethoxy)ethyl)amino)-3-oxopropyl)-1-methyl-5-oxo-2-(pyridin-3-yl)pyrrolidine-3-carboxamide] | – | – | – | 0.398 | 0.501 nM and 0.126 nM | – |
